Measured values: PubChem BioAssay (NCI)
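Exposure lasted 48 hours, with cells grown in 96-well plates and compounds tested at five concentrations. Here, GI50 denotes the concentration required for 50% inhibition of growth. At the TGI there is no net growth.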

How the values were obtained:
Assay in all cases: inhibition of tumour cell growth, NCI panel, 48 h
[1] = system: A498 renal
[2] = system: HCT-116 colon
[3] = system: HOP-92 NSCLC
[4] = system: LOX IMVI melanoma
[5] = system: M14 melanoma
[6] = system: MOLT-4 leukemia
[7] = system: NCI-H460 lung
[8] = system: NCI/ADR-RES ovarian
[9] = system: SK-MEL-2 melanoma
[10] = system: CAKI-1 renal

| SMILES | TGI [1] | TGI [2] | TGI [3] | TGI [4] | TGI [5] | TGI [6] | TGI [7] | TGI [8] | TGI [9] | GI50 [1] | GI50 [10] | TGI [10] | GI50 [2] | GI50 [3] | GI50 [4] | GI50 [5] | GI50 [6] | GI50 [8] | GI50 [9] |
| --- | --- | --- | --- | --- | --- | --- | --- | --- | --- | --- | --- | --- | --- | --- | --- | --- | --- | --- | --- |
| CC(C)CCCC(C)[C@H]1CCC2[C@@H]3CCC4Cc5nc6c(nc5C[C@]4(C)C3CC[C@@]21C)CC1CC[C@@H]2C(CC[C@@]3(C)C2CC[C@@H]3O)[C@@]1(C)C6 (stereo partly specified) | > 100 µM | > 100 µM | > 100 µM | > 100 µM | > 100 µM | > 100 µM | > 100 µM | > 100 µM | > 100 µM | – | – | – | – | – | – | – | – | – | – |
| CCN(CC)C(=S)SSCCO | > 100 µM | 27.7 µM | 27.7 µM | 46.3 µM | 27.5 µM | 21.7 µM | – | 32.5 µM | 39.6 µM | 85 µM | 13.6 µM | 27.5 µM | 14.6 µM | 14.6 µM | 19.9 µM | 14.2 µM | 4.7 µM | 17.1 µM | 19.9 µM |
| CCOC(=O)C(C)(Cc1ccc(O)cn1)NC(=O)c1ccccc1 (stereo unspecified) | – | > 100 µM | > 100 µM | > 100 µM | > 100 µM | > 100 µM | > 100 µM | > 100 µM | > 100 µM | – | – | > 100 µM | – | – | – | – | – | – | – |
| O=C1CC(=O)NC(=NN2C(=O)/C(=C/c3ccc(Cl)cc3)N=C2c2ccccc2)N1 | 31.7 µM | 30.7 µM | 26.1 µM | – | 29.3 µM | 22.7 µM | 22.9 µM | 31.8 µM | 31.1 µM | – | – | > 100 µM | – | – | – | – | – | – | – |
| O=C(O)Cc1ccc(Oc2nc3ccccc3nc2-c2ccccc2)cc1 | > 100 µM | > 100 µM | – | > 100 µM | > 100 µM | > 100 µM | > 100 µM | > 100 µM | > 100 µM | – | – | > 100 µM | – | – | – | – | – | – | – |
| O=C1NC2=NN=C(c3ccc(Br)cc3)CN2NC12c1ccccc1-c1ccccc12 | > 100 µM | > 100 µM | > 100 µM | > 100 µM | > 100 µM | – | > 100 µM | > 100 µM | > 100 µM | – | – | > 100 µM | – | – | – | – | – | – | – |
| Cc1cc(OC(=O)c2c(C)cc(OC(=O)c3c(C)cc(O)cc3O)cc2O)cc(O)c1C(=O)O | > 100 µM | – | > 100 µM | > 100 µM | > 100 µM | > 100 µM | > 100 µM | – | > 100 µM | – | – | > 100 µM | – | – | – | – | – | – | – |
| CC(=O)c1sc2c(c1O)c(=O)n(-c1ccccc1)c(=S)n2-c1ccccc1 | – | – | > 100 µM | > 100 µM | > 100 µM | > 100 µM | > 100 µM | – | > 100 µM | – | – | – | – | – | – | – | – | – | – |
| Nc1ncnc2c1ncn2CCOC(c1ccccc1)P(=O)(O)O (stereo unspecified) | > 100 µM | > 100 µM | – | > 100 µM | – | > 100 µM | > 100 µM | – | > 100 µM | – | – | > 100 µM | – | – | – | – | – | – | – |
| C/C(=N\Nc1nc2ccccc2n1C)c1ccc2ccccc2n1 | 15.6 µM | 7.03 µM | 37.8 µM | 16.6 µM | 4.91 µM | – | 32.1 µM | 6.71 µM | > 36 µM | – | – | 4.51 µM | – | – | – | – | – | – | – |
| O=C(/C=C/c1cccs1)c1ccc([N+](=O)[O-])cc1 | > 100 µM | > 100 µM | – | > 100 µM | > 100 µM | > 100 µM | > 100 µM | > 100 µM | > 100 µM | – | – | > 100 µM | – | – | – | – | – | – | – |
| COc1cc(S(=O)(=O)Nc2ccc(-c3csc(/N=C\c4cccs4)n3)cc2)ccc1Cl | > 100 µM | > 100 µM | > 100 µM | > 100 µM | > 100 µM | – | > 100 µM | > 100 µM | > 100 µM | – | – | > 100 µM | – | – | – | – | – | – | – |
| O=C([O-])C1([n+]2c(-c3ccccc3)cc(-c3ccccc3)cc2-c2ccccc2)CC1 | > 100 µM | > 100 µM | > 100 µM | > 100 µM | > 100 µM | > 100 µM | > 100 µM | > 100 µM | – | – | – | – | – | – | – | – | – | – | – |
| CCN(CC)C(=S)S | > 100 µM | 19.7 µM | > 100 µM | > 100 µM | > 59.8 µM | – | – | – | > 100 µM | – | – | – | – | – | – | – | – | – | – |
| CC(=O)Oc1ccc2cc(Oc3ccccc3)c(=O)oc2c1 | > 100 µM | > 100 µM | > 100 µM | > 100 µM | > 100 µM | – | > 100 µM | – | – | – | – | > 100 µM | – | – | – | – | – | – | – |
| OC1CSCCSCCCSCCSC1 | > 100 µM | > 100 µM | > 100 µM | > 100 µM | > 100 µM | > 100 µM | > 100 µM | – | > 100 µM | – | – | > 100 µM | – | – | – | – | – | – | – |
| C=CCCCCCCCCC(=O)ON(Cc1ccc(O)c(OC)c1)C(=O)C(F)(F)F | > 100 µM | > 100 µM | > 100 µM | > 100 µM | > 100 µM | > 100 µM | > 100 µM | > 100 µM | – | – | – | – | – | – | – | – | – | – | – |
| N=C(N)c1ccc(N=Nc2c(O)ccc3cc(O)ccc23)cc1 | – | > 100 µM | > 100 µM | – | > 100 µM | > 100 µM | > 100 µM | > 100 µM | > 100 µM | – | – | > 100 µM | – | – | – | – | – | – | – |
| CSC1(Cc2ccccn2)C(=O)Nc2cccc([N+](=O)[O-])c21 (stereo unspecified) | – | > 100 µM | > 100 µM | > 100 µM | > 100 µM | > 100 µM | > 100 µM | > 100 µM | > 100 µM | – | – | > 100 µM | – | – | – | – | – | – | – |
| CCOP(=O)(/C=C/n1cnc2c(=O)n(C(C)=O)c(N)nc21)OCC | > 100 µM | > 100 µM | – | > 100 µM | > 100 µM | > 100 µM | > 100 µM | > 100 µM | > 100 µM | – | – | > 100 µM | – | – | – | – | – | – | – |
| Cn1c(=O)n2n(c1=O)C(S(=O)c1ccccc1)C2 (stereo unspecified) | – | > 100 µM | > 100 µM | > 100 µM | > 100 µM | > 100 µM | > 100 µM | > 100 µM | > 100 µM | – | – | > 100 µM | – | – | – | – | – | – | – |
| Nc1ncnc2c1N=C(c1ccccc1)CC(c1ccccc1)N2 (stereo unspecified) | – | > 100 µM | > 100 µM | > 100 µM | > 100 µM | > 100 µM | – | > 100 µM | > 100 µM | – | – | > 100 µM | – | – | – | – | – | – | – |
| Nc1c(C(=O)c2ccccc2)nnc2ccccc12 | – | 71.6 µM | 48.7 µM | > 100 µM | > 100 µM | > 100 µM | 67.1 µM | 64.6 µM | 38.3 µM | – | – | > 100 µM | – | – | – | – | – | – | – |
